Like-named read-outs stand apart in the source and are kept apart here.
Test: In vivo pharmacokinetics in rat, oral and intravenous
Parameters: species or system Sprague-Dawley rats
Details: 1 mg/kg
Description: Absorption and metabolic stability were studied using an in vivo pharmacokinetics assay. Drug levels were assessed using ultra-performance LC/TOF-MS.
Three male Sprague-Dawley rats, 200-300 g, were dosed per route. […] Test compound was formulated in 50:50 tetraethylene glycol:PBS for both routes. Animals were given free access to food throughout the study. On the day prior to dosing, the carotid artery was cannulated for sample collection and for the intravenous study, the jugular vein was cannulated to enable dosing.
Blood samples were taken from the carotid artery at the following time points and placed in heparinised tubes:
Oral dosing—predose, 0.25, 0.5, 1, 2, 4, 8 and 24 hours post dose.
IV dosing—predose, 0.08, 0.25, 0.5, 1, 2, 4 and 8 hours post dose.
Blood samples were centrifuged to obtain plasma, which was transferred to a separate container and frozen at −20° C.
Samples were thawed at room temperature and prepared by protein precipitation with acetonitrile in the ratio 1:2 with plasma, followed by centrifugation for 10 minutes at 16,100×g (Eppendorf 5415D, Eppendorf AG, Hamburg, Germany). The supernatants were collected for analysis. The standard samples were prepared similarly, after spiking blank rat plasma samples to study compound concentrations at 1, 2, 5, 10, 20, 50, 100, 200, 500 and 1000 ng/mL. In addition, extra samples were prepared from 0-1 hour i.v. samples by diluting 1/20 with 50% aqueous acetonitrile to avoid exceeding the linear range of the analytical method.
A Waters Acquity liquid ultra-performance chromatographic system (Waters Corp., Milford, Mass., USA) with autosampler, vacuum degasser and column oven was used. The analytical column used for all compounds was a Waters BEH C18, (2.1×50 mm, 1.7 μm, Waters Corp, Milford, Mass., USA) together with a 0.2 μm on-line filter before the column. The eluents were 0.1% acetic acid (A, pH 3.2) and methanol (B). Gradient elution from 5% to 60% B in two minutes was employed, followed by one minute gradient to 90% B and column equilibration. The flow rate was 0.5 mL/min and the column oven temperature was 35° C. The flow was directed to the MS via Water Acquity photo-diode-array (PDA) detector. LC/TOF-MS data were recorded with a Micromass LCT Premier XE time-of-flight (TOF) mass spectrometer (Micromass Ltd., Manchester, England) equipped with a LockSpray electrospray ionization source. A positive ionization mode of electrospray was used for all compounds. The mass range of m/z 100-900 was acquired. The W-option of the reflector was used, and the DRE (dynamic range enhancement) option was set to on. The mass spectrometer and HPLC system were operated under Micromass MassLynx 4.1 software. Leucine enkephalin ([M+H]^+ m/z 556.2771) was used as a lock mass compound for accurate mass measurements and was delivered into the LockSpray probe with a syringe pump. MassLynx 4.1 software was used for controlling the instrumentation and for data processing.
The pharmacokinetic parameters for the test compounds were calculated by WinNonlin Pro (Pharsight Corp, CA) using standard noncompartmental methods. The elimination phase half-life (t1/2) was calculated by least-squares regression analysis of the terminal linear part of the log concentration−time curve. The area under the plasma concentration−time curve (AUC) was determined by use of the linear trapezoidal rule up to the last measurable concentration and thereafter by extrapolation of the terminal elimination phase to infinity. The tentative oral bioavailability (F) was calculated by dividing the AUC (0-24 hours) after p.o. administration by the AUC (0-8 hours) after i.v. administration, i.e., F=AUC(p.o.)/AUC(i.v), and reported as percentages (%).

- AUC (i.v.): 11900 ng/mL/min
- half-life (male, Sprague-Dawley, plasma, iv, i.v., read-out: T½ (converted)): 48.6 min
- bioavailability (male, Sprague-Dawley, plasma, oral, read-out: Bioavailability F %): 38%
- half-life (male, Sprague-Dawley, plasma, po, following oral administration, read-out: extended half life (converted)): 460 min
- half-life (male, Sprague-Dawley, plasma, po, p.o., read-out: T½ (converted)): 190 min
- AUC (p.o.): 1500 ng/mL/min
Compound: CNC(CO)c1cccc(NS(=O)(=O)c2ccc(-c3ccc(F)cc3F)cc2)c1 (stereo not drawn) [ABD789, 2′,4′-Difluoro-N-(3-(2-hydroxy-1-(methylamino)ethyl)phenyl)biphenyl-4-sulfonamide]

From patent US8207167B2, “Aryl-phenyl-sulfonamide-phenylene compounds and their use” (PIMCO 2664 Limited, priority 2008, dated 2012)
